Data reported in US10434077B2, “Glycolic acid and/or D-lactic acid for the treatment of neurodegenerative diseases” (MAX-PLANCK-GESELLSCHAFT ZUR FOERDERUNG DER WISSENSCHAFTEN …, priority 2014, dated 2019).
“Also recorded” adds a separate entry of the source. Structures can show the parent of a compound that is named as a salt. Where two headings read alike, the source gives them in different places.

Assays:
[1] = system: DJ-1 RNAi HeLa cells; assay: Mitotic rounding pressure of DJ-1 RNAi HeLa cells (AFM microcantilever); format: cell-based, human; conditions: for rescue of the lower pressure phenotype in low or no glucose medium: HeLa kept 2 or more passages in low or no glucose medium before RNAi, measured 1 hour after addition; for rescue of the reduced rounding pressure of mitotic DJ-1 RNAi cells: HeLa, substance added to medium, concentration not given; for rescue of the lower pressure phenotype at 10 mM: RNAi-treated mitotic HeLa cells, 10 mM supplement
Experimental: (§1) HeLa-Kyoto cells stably expressing histone H2B-EGFP and mCherry-CAAX (clone 2B4), their parental cells, and HeLa-Kyoto expressing mouse DJ-1 transgene were used. Also, mouse embryonic fibroblast (MEF) (Pham et al., 2010) cells were used. Cells were maintained in DMEM supplemented with 10% fetal bovine serum (FBS), 2 mM GlutaMAX, 100 unit/ml penicillin, 100 μg/ml streptomycin, plus additional antibiotics for the transgene (0.5 mg/ml Geneticin for H2B-EGFP and mouse DJ-1 BAC transgene; 0.5 pug/ml puromycin for mCherry-CAAX), at 37° C. in a 5% CO2 environment. The DMEM with high glucose (5 g/1) was used unless specifically mentioned (e.g. FIG. 14). For atomic force microscopy (AFM) measurements of mammalian cells, a CO2-independent medium containing 4 mM sodium bicarbonate and 20 mM HEPES Was used. HeLa Cells Were RNAi-transfected with 160 nM endoribonuclease-digested small interfering RNA (MISSION esiRNA, Sigma) using oligofectamine reagent (Invitrogen). Paraquat (PQ^2+) was added 24 hours after RNAI. Cells were assayed after 48 hours from RNAI.
(§2) Cell rounding pressure analysis with microcantilevers Cells were grown on a glass-base dish (FD35, World Precision Instruments) with a silicon spacer, which was prepared from μ-Chamber 12 well (ibidi), in the center. Medium was replaced with the CO2-independent medium, then the dish was mounted on the stage of a light microscope (AxioObserver Z1 or Axiovert200, Zeiss) equipped with a 20× objective (Plan Apochromat, NA=0.80). To measure the force of the mitotic cell, a tipless microcantilever (NSC12/CSC37-B with a nominal spring constant of 0.3 N/m, MikroMasch, Estonia) mounted on a glass block of the AFM head (NanoWizard I or II, JPK instruments, Berlin) was used. Setup and calibration were done before every experiment; see Stewart et al (Stewart at al., 2012) for the details of the procedures. In a quick force measurement illustrated in FIG. 5A, the cantilever was set at […] above the glass dish and moved over the mitotically arrested cells to measure the equilibrium force. Measuring the cellular force and pressure through mitosis was done as described (Stewart at al., 2012, Stewart at al., 2011). Otherwise the cell pressure and volume were measured in a constant-height assay, as illustrated in FIG. 5B: the cantilever was first set at 14 μm height and placed over a metaphase cell to record rounding force. The cantilever was then brought down to 8 μm height at 0.1 μmu/sec, to measure peak and equilibrium forces. The maximal cross-section area of the cell was measured from the DIC or mCherry-CAAX image to calculate cell pressure and volume. Calculation of cell pressure and volume, and the contact area to the Cantilever was done as described (Stewart et al., 2012; Stewart et al., 2011). In every experiment, RNAi penetrance was confirmed by lower pressure of MYH9 RNAI-treated cells (Toyoda at al., 2011).

[2] = system: mitotic MEF cells (wild type and DJ-1 knock-out); assay: Mitotic rounding pressure of mouse embryonic fibroblasts (AFM); format: cell-based; conditions: for rescue of the reduced rounding pressure of mitotic DJ-1-deficient MEFs: DJ-1 knock-out MEFs, concentration not given; for rescue of the lower pressure phenotype at 10 mM: mitotic DJ-1 KO MEF cells, measured after 1 hour; for rescue of the lower pressure phenotype at 10 mM / effect on pressure of mitotic WT MEFs (negative effects on cell mechanics): 10 mM supplement; for effect on pressure of mitotic WT MEFs (negative effects on cell mechanics): wild type MEFs
Experimental: as §1, §2

[3] = system: DJ-1 GLO1 double RNAi-treated cells; assay: Mitotic rounding pressure of DJ-1 GLO1 double RNAi-treated cells (AFM); format: cell-based, human; conditions: both glyoxalases DJ-1 and GLO1 knocked down
Experimental: as §1, with “HeLa Cells Were RNAi-transfected with 160 nM endoribonuclease-digested small interfering RNA (MISSION esiRNA, Sigma) using oligofectamine reagent (Invitrogen). Paraquat (PQ^2+) was added 24 hours after RNAI. Cells were assayed after 48 hours from RNAI.” left out
Cell rounding pressure analysis with microcantilevers Cells were grown on a glass-base dish (FD35, World Precision Instruments) with a silicon spacer, which was prepared from μ-Chamber 12 well (ibidi), in the center. […] Otherwise the cell pressure and volume were measured in a constant-height assay, as illustrated in FIG. 5B: the cantilever was first set at 14 μm height and placed over a metaphase cell to record rounding force. […] The maximal cross-section area of the cell was measured from the DIC or mCherry-CAAX image to calculate cell pressure and volume. […]

[4] = system: DJ-1 RNAi HeLa cells; format: cell-based, human; conditions: for rescue of the circular mitochondrial phenotype: paraquat-treated DJ-1 RNAi HeLa cells, supplements for 24 hours
Experimental: as §1
To film the osmotically challenged HeLa cells, a DeltaVision system (Applied Precision) was used, equipped with an Olympus IX-71 Inverted microscope and a 40× (UPIanApo, NA=1.00) objective. Time-lapse images were acquired at 1-min intervals except during osmotic shock treatment (equal volume of water for hypotonic shock; equal volume of the AFM medium containing 2.86% (w/v) xylose for hypertonic shock). Deconvolved and maximally projected images were analyzed manually on Image.J to annotate the radius and the volume of the round objects (i.e. mitotic cells), assuming that the cells were spherical (Stewart et al., 2011). To image mitochondria of HeLa cells, MitoTracker Red CMXRos was added at 150 nM and fixed with 3% (v/w) paraformaldehyde in PBS, 1 mM MgCl2, and 5 mM EGTA. Chromatin was counter-stained by 1 μg/ml Hoechst33342. They were imaged on the DeltaVision system using a 60× objective (PlanApo N, NA=1.42, Olympus), and deconvolved and maximally projected images were used for the analysis. Due to high background of MitoTracker in the center of the cell, mitochondria in a 15×15 um area in the periphery were manually annotated on Image.J software.

[5] = system: primary mesencephalic dopaminergic neurons from wild type mouse embryos; assay: In vitro survival of primary dopaminergic (TH+) neurons, wild type; format: cell-based; conditions: 3 mM glucose, 10 mM GA, 10 mM DL, 10 mM LL, TH+ cells relative to no supplement
Experimental: (§3) Briefly, brain mesencephalons from E14.5 C57JBL6 or DJ-1 embryos were dissected under the microscope and digested with Trypsin-EDTA (Sigma-Aldrich). The trypsin reaction was stopped by adding the basic medium (BM) containing Neurobasal A medium (Gibco), 1 mg/ml penicillin/streptomycin, 10% (v/v) fetal calf serum (Invitrogen) and 2 mM L-glutamine and cells were mechanically dissociated using a fire-polished Pasteur pipette. Medium was fully replaced by centrifuging for 5 min. at 1200 rpm, aspiring the supernatant and adding 8 ml of the fresh BM to the pellet. […] The same volume of medium containing the different treatment substances was added 4 hours after plating to obtain the following treatment concentrations: control, 3 mM glucose, 10 mM GA, 10 mMDL and 10 mM LL. 24 hours later ⅓ of the medium was replaced with fresh BM. On DIV3 (day-in-vitro-culture 3) half of the medium was replaced with B27 medium containing Neurobasal A medium, 1 mg/ml penicillin/streptomycin, 2 mM L-Glutamine (Sigma-Aldrich) and B-27 supplement (Life Technologies) and on DIV5 all medium was replaced by B27 medium.
(§4) Dopaminergic TH^+ neurons were observed using an inverted fluorescence microscope (Axiovert 200M, Zeiss) under a 10× objective (PlanApo, NA=0.45). The diameter of every well was scanned in two perpendicular directions (i.e. top to bottom and left to right) and total TH^+ neurons were counted for every well.

[6] = system: dopaminergic neurons from DJ-1 knock out mice; assay: In vitro survival of primary dopaminergic (TH+) neurons, DJ-1 knock out; format: cell-based, mouse; conditions: DJ-1 KO/mutant; 3 mM glucose, 10 mM GA, 10 mM DL
Experimental: as §3, §4

[7] = system: primary dopaminergic neurons from wild-type E14.5 embryos treated with PQ2+; conditions: 12.5 μM PQ2+ for 72 hours, 10 mM supplement
Experimental: Briefly, brain mesencephalons from E14.5 C57JBL6 or DJ-1 embryos were dissected under the microscope and digested with Trypsin-EDTA (Sigma-Aldrich). The trypsin reaction was stopped by adding the basic medium (BM) containing Neurobasal A medium (Gibco), 1 mg/ml penicillin/streptomycin, 10% (v/v) fetal calf serum (Invitrogen) and 2 mM L-glutamine and cells were mechanically dissociated using a fire-polished Pasteur pipette. Medium was fully replaced by centrifuging for 5 min. at 1200 rpm, aspiring the supernatant and adding 8 ml of the fresh BM to the pellet. […] The same volume of medium containing the different treatment substances was added 4 hours after plating to obtain the following treatment concentrations: control, 3 mM glucose, 10 mM GA, 10 mMDL and 10 mM LL. 24 hours later ⅓ of the medium was replaced with fresh BM. […]
as §4

[8] = system: C. elegans ΔΔdjr double mutant and glod-4 single mutant larvae; format: in vivo
Experimental: (Brenner, 1974). […] All mutants were outcrossed at least twice.
Mitochondria staining was performed as previously described. Briefly, MitoTracker Deep Red or CMXROS (M22426, M7512, Life Technologies) were dissolved in DMSO at a concentration of 5 mM and kept at −20° C. as a stock solution. On the day of microscopy worms were incubated in a 1:1000 diluted MitoTracker for 45 min at room temperature. Worms were then paralyzed with 1 mM Levamizol (Sigma-Aldrich), placed on slides covered with a thin layer of NGM medium on top of which the coverslip (22×22 mm, Menzel-Glaser #1) was fixed using nail lack.
Microscopy images from live paralyzed worm larvae stained with MitoTracker were taken using a confocal microscope (LSM510, Zeiss, Germany). Samples were excited using a 514 (MitoTracker CMXRos) or a 647 (MitoTracker Deep Red) nm lasers and two channels, one BP505-550 or LP650 and the BF channel were used to acquire the images. Gain was maintained between 450 and 515 for all samples to ensure the detection of signal intensity differences.

[9] = system: C. elegans larvae (ΔΔdjr, glod-4)
Experimental: (A) The differential expression of djr-1.1, djr-1.2 and glod-4 was tested by RT-PCR in four replicates. […] (B) Length of the worms treated with PQ^2+. Bars and error bars show the mean and SD, respectively. […] Every strain was compared to its control at different PQ^2+ concentrations by two-way ANOVA followed by Tukey's honestly significant differences (HSD) test. (C) Worm larvae treated with PQ or control. Scale bar, 250 μm. (D) survival of the worm larvae treated with 200 μM paraquat and 1 mM of the Indicated supplements. Bars and error bars show the mean and SD, respectively. […] Every strain was compared to its own control by two-way ANOVA followed by Tukey's HSD test. Data were normalized by Freeman-Tukey's double arcsine transformation prior to ANOVA. *p<0.05; **p<0.01; ***p<0.001.
All C. elegans strains were maintained on NGM agar plates seeded with Escherichia coli NA22 at 15° C. […] Mutant strains djr-1.1(tm918), djr-1.2(tm951) and glod4(tm1266) were obtained from National Bioresource Project, Japan. Wild type (N2) and daf-2 mutant strains were obtained from Caenorhabditis Genetics Center, USA. All mutants were outcrossed at least twice. DJ-1 double mutant djr-1.1(tm918), djr-1.2(tm951), abbreviated as ΔΔdjr, was achieved by crossing both single mutants. This strain was then further crossed to daf-2 to generate daf-2; ΔΔdjr triple mutant.

[10] = estimated; cited from earlier work
[11] = toxicology study; cited from earlier work

NC(=O)c1ccc(N)nc1 [6-aminonicotinamide, reference compound]
effect on the glucose-mediated rescue of pressure in DJ-1 RNAi cells ([1]; mitotic HeLa, measured after 1 hour): inhibited

C[C@@H](O)C(=O)O [DL, D-(−)-lactic acid]
rescue of the lower pressure phenotype in low or no glucose medium [1]: rescue of the lower pressure phenotype was observed | rescue of the reduced rounding pressure of mitotic DJ-1 RNAi cells [1]: could rescue the reduced pressure | rescue of the lower pressure phenotype at 10 mM ([1]; measured after 1 hour): rescued the lower pressure phenotype | rescue of the reduced rounding pressure of mitotic DJ-1-deficient MEFs [2]: could rescue the reduced pressure | rescue of the lower pressure phenotype at 10 mM [2]: rescued the lower pressure phenotype | rescue of the pressure phenotype in DJ-1 and GLO1 double knock-down cells [3]: could rescue | rescue of the circular mitochondrial phenotype [4]: rescued | rescue of the circular mitochondrial phenotype ([4]; listed as D-lactate): rescue mitochondria structure | in vitro survival of dopaminergic (TH+) neurons [5]: stimulated; also recorded: stimulate the survival | in vitro survival of dopaminergic (TH+) neurons ([5]; listed as D-lactate): support viability | survival of dopaminergic neurons from DJ-1 knock out mice [6]: could stimulate neuronal survival; also recorded: stimulate the survival | rescue of the toxic effect of paraquat on dopaminergic neurons [7]: significantly rescue the toxic effect of paraquat

O=C(O)CO [GA, 2-hydroxyethanoic acid]
rescue of the lower pressure phenotype in low or no glucose medium [1]: rescue of the lower pressure phenotype was observed | rescue of the reduced rounding pressure of mitotic DJ-1 RNAi cells [1]: could rescue the reduced pressure | rescue of the lower pressure phenotype at 10 mM ([1]; measured after 1 hour): rescued the lower pressure phenotype | rescue of the reduced rounding pressure of mitotic DJ-1-deficient MEFs [2]: could rescue the reduced pressure | rescue of the lower pressure phenotype at 10 mM [2]: rescued the lower pressure phenotype | effect on pressure of mitotic WT MEFs (negative effects on cell mechanics) [2]: decreases pressure | rescue of the pressure phenotype in DJ-1 and GLO1 double knock-down cells [3]: could rescue | rescue of the circular mitochondrial phenotype [4]: rescued | rescue of the circular mitochondrial phenotype ([4]; listed as glycolate): rescue mitochondria structure | reversal of circular mitochondria and diminished MitoTracker staining ([8]; paraquat-treated ΔΔdjr double mutant and glod-4 single mutant larvae): reversed | restoration of viability of ΔΔdjr mutant larvae ([9]; in vivo): restored | in vitro survival of dopaminergic (TH+) neurons [5]: stimulated; also recorded: stimulate the survival | in vitro survival of dopaminergic (TH+) neurons ([5]; listed as Glycolate): support viability | survival of dopaminergic neurons from DJ-1 knock out mice [6]: could stimulate neuronal survival; also recorded: stimulate the survival

C[C@H](O)C(=O)O [LL, L-(+)-lactic acid, reference compound]
rescue of the reduced rounding pressure of mitotic DJ-1 RNAi cells [1]: had no effect | rescue of the reduced rounding pressure of mitotic DJ-1-deficient MEFs [2]: had no effect | rescue of the lower pressure phenotype at 10 mM [2]: but not LL, rescued the lower pressure phenotype | effect on pressure of mitotic WT MEFs (negative effects on cell mechanics) [2]: decreases pressure

OCCOCCO [diethylene glycol]
minimum toxic dose [10]: 0.14 mg glycolic acid per kg of body weight

NC(=O)CC[C@H](N)C(=O)O [glutamine, reference compound]
rescue of the reduced rounding pressure of mitotic DJ-1 RNAi cells [1]: neither pyruvate, which is produced from glucose, nor glutamine, which can enter the Krebs cycle, rescued the DJ-1 pressure phenotype

CC(O)C(=O)O (stereo not shown) [lactic acid, 2-hydroxypropanoic acid]
amount declared as harmless [11]: about 8 g/day

C[n+]1ccc(-c2cc[n+](C)cc2)cc1 [paraquat, reference compound]
effect of paraquat on mitochondrial structure ([4]; low doses of paraquat, DJ-1 RNAi HeLa cells): disrupted mitochondrial structure | effect of paraquat on mitochondria of worm larvae ([8]; reproductive larvae of C. elegans): disrupted mitochondria | effect of paraquat on viability of glod-4 mutant larvae ([9]; glod-4, 200 μM paraquat): not affected | effect of paraquat on viability of ΔΔdjr mutant larvae ([9]; ΔΔdjr, 200 μM paraquat): decreased viability

CC(=O)C(=O)O [pyruvate, 2-oxopropanoic acid salt, reference compound]
rescue of the reduced rounding pressure of mitotic DJ-1 RNAi cells [1]: neither pyruvate, which is produced from glucose, nor glutamine, which can enter the Krebs cycle, rescued the DJ-1 pressure phenotype | rescue of the circular mitochondrial phenotype [4]: cannot rescue the circular phenotype
